Results from patent US12180187B2, “1-phenyl-5-azinylpyrazolyl-3-oxyalkyl acids and their use for controlling unwanted plant growth” (BAYER AKTIENGESELLSCHAFT, priority 2019, dated 2024).

Experiments:
AMARE [1] = assay: Pre-emergence action against AMARE, 1280 g/ha; assay type: in vivo, Amaranthus retroflexus; conditions: scored visually after about 3 weeks vs untreated controls (100% = plants have died)
From the text: (§1) 1. Pre-Emergence Herbicidal Effect and Crop Plant Compatibility a) Seeds of mono- and dicotyledonous weed plants are placed in plastic pots in sandy loam soil (doubly sown with one species each of mono- or dicotyledonous weed plants per pot) and covered with soil. The compounds of the invention, formulated in the form of wettable powders (WP) or as emulsion concentrates (EC), are then applied onto the surface of the covering soil as aqueous suspension or emulsion with addition of 0.5% additive at a water application rate equivalent to 600 litres per hectare. After the treatment, the pots are placed in a greenhouse and kept under good growth conditions for the trial plants. After about 3 weeks, the effect of the preparations is scored visually in comparison with untreated controls as percentages. For example, 100% activity=the plants have died, 0% activity=like control plants. 1. Pre-Emergence Effectiveness Tables 1 to 12 below show the effects of selected compounds of the general formula (I) according to Tables 1 and 2 on various harmful plants and at an application rate corresponding to 1280 g/ha, which were obtained by the experimental procedure mentioned above.

STEME [2] = assay: Pre-emergence action against STEME, 1280 g/ha; assay type: in vivo, Stellaria media; conditions: scored visually after about 3 weeks vs untreated controls (100% = plants have died)
From the text: as §1

LOLRI [3] = assay: Pre-emergence action against LOLRI, 1280 g/ha; assay type: in vivo, Lolium rigidum; conditions: visual scoring after about 3 weeks vs untreated controls, 100% = plants have died, 0% = like control plants
From the text: as §1

MATIN [4] = assay: Pre-emergence action against MATIN, 1280 g/ha; assay type: in vivo, Tripleurospermum inodorum (Matricaria inodora); conditions: scored visually after about 3 weeks vs untreated controls (100% = plants have died)
From the text: as §1

ABUTH = assay: Post-emergence action against ABUTH, 1.28 kg/ha; assay type: in vivo, Abutilon theophrasti; conditions: dosage 1280 g/ha, visual rating about 3 weeks after treatment vs untreated controls (100% = plants died)
Protocol: (§2) • a) Seeds of mono- and dicotyledonous weed plants are placed in plastic pots in sandy loam soil (twin sowing with one species each of mono- or dicotyledonous weed plants per pot), covered with soil and cultivated in a greenhouse under controlled growth conditions. 2 to 3 weeks after sowing, the test plants are treated at the one-leaf stage. The compounds of the invention, formulated in the form of wettable powders (WP) or as emulsion concentrates (EC), are applied to the green parts of the plants as aqueous suspension or emulsion with addition of 0.5% additive at a water application rate equivalent to 600 litres per hectare. After the test plants have been kept in the greenhouse under optimum growth conditions for about 3 weeks, the activity of the preparations is rated visually in comparison to untreated controls. For example, 100% activity=the plants have died, 0% activity=like control plants. As shown by the results, compounds of the general formula (I) of the invention, in post-emergence treatment, have very good herbicidal efficacy (90% to 100% herbicidal action) against harmful plants such as Abutilon theophrasti, Digitaria sanguinalis, Echinochloa crus-galli, Matricaria inodora, Poa annua, at an application rate of 1.28 kg of active substance per hectare.

AMARE [5] = assay: Post-emergence action against AMARE, 1.28 kg/ha; assay type: in vivo, Amaranthus retroflexus; conditions: dosage 1280 g/ha, visual rating about 3 weeks after treatment vs untreated controls (100% = plants died)
Protocol: as §2

ECHCG [6] = assay: Post-emergence action against ECHCG, 1.28 kg/ha; assay type: in vivo, Echinochloa crus-galli; conditions: dosage 1280 g/ha, visual rating about 3 weeks after treatment vs untreated controls
Protocol: as §2

ECHCG [7] = assay: Pre-emergence action against ECHCG, 1280 g/ha; assay type: in vivo, Echinochloa crus-galli; conditions: visual scoring after about 3 weeks vs untreated controls, 100% = plants have died, 0% = like control plants
From the text: as §1

MATIN [8] = assay: Post-emergence action against MATIN, 1.28 kg/ha; assay type: in vivo, Tripleurospermum inodorum (Matricaria inodora); conditions: dosage 1280 g/ha, visual rating about 3 weeks after treatment vs untreated controls (100% = plants died)
Protocol: as §2

POAAN [9] = assay: Post-emergence action against POAAN, 1.28 kg/ha; assay type: in vivo, Poa annua; conditions: dosage 1280 g/ha, visual rating about 3 weeks after treatment vs untreated controls
Protocol: as §2

STEME [10] = assay: Post-emergence action against STEME, 1.28 kg/ha; assay type: in vivo, Stellaria media; conditions: dosage 1280 g/ha, visual rating about 3 weeks after treatment vs untreated controls (100% = plants died)
Protocol: as §2

VERPE [11] = assay: Post-emergence action against VERPE, 1.28 kg/ha; assay type: in vivo, Veronica persica; conditions: dosage 1280 g/ha, visual rating about 3 weeks after treatment vs untreated controls (100% = plants died)
Protocol: as §2

VERPE [12] = assay: Pre-emergence action against VERPE, 1280 g/ha; assay type: in vivo, Veronica persica; conditions: scored visually after about 3 weeks vs untreated controls (100% = plants have died)
From the text: as §1

POAAN [13] = assay: Pre-emergence action against POAAN, 1280 g/ha; assay type: in vivo, Poa annua; conditions: visual scoring after about 3 weeks vs untreated controls, 100% = plants have died, 0% = like control plants
From the text: as §1

SETVI [14] = assay: Pre-emergence action against SETVI, 1280 g/ha; assay type: in vivo, Setaria viridis; conditions: visual scoring after about 3 weeks vs untreated controls, 100% = plants have died, 0% = like control plants
From the text: as §1

SETVI [15] = assay: Post-emergence action against SETVI, 1.28 kg/ha; assay type: in vivo, Setaria viridis; conditions: dosage 1280 g/ha, visual rating about 3 weeks after treatment vs untreated controls
Protocol: as §2

DIGSA [16] = assay: Pre-emergence action against DIGSA, 1280 g/ha; assay type: in vivo, Digitaria sanguinalis; conditions: visual scoring after about 3 weeks vs untreated controls, 100% = plants have died, 0% = like control plants
From the text: as §1

ALOMY [17] = assay: Post-emergence action against ALOMY, 1.28 kg/ha; assay type: in vivo, Alopecurus myosuroides; conditions: dosage 1280 g/ha, visual rating about 3 weeks after treatment vs untreated controls
Protocol: as §2

DIGSA [18] = assay: Post-emergence action against DIGSA, 1.28 kg/ha; assay type: in vivo, Digitaria sanguinalis; conditions: dosage 1280 g/ha, visual rating about 3 weeks after treatment vs untreated controls
Protocol: as §2

AMARE [19] = assay: Pre-emergence action at 320 g/ha against AMARE; assay type: in vivo, Amaranthus retroflexus; conditions: visual scoring after about 3 weeks vs untreated controls
From the text: (§3) b) Seeds of monocotyledonous and dicotyledonous weed plants and crop plants are placed in plastic or organic planting pots and covered with soil. The compounds of the invention, formulated in the form of wettable powders (WP) or as emulsion concentrates (EC), are then applied onto the surface of the covering soil as aqueous suspension or emulsion with addition of 0.5% additive at a water application rate of 600 l/ha (converted). After the treatment, the pots are placed in a greenhouse and kept under good growth conditions for the trial plants. After about 3 weeks, the effect of the preparations is scored visually in comparison with untreated controls as percentages. For example, 100% activity=the plants have died, 0% activity=like control plants. Tables 13 to 26 below show the effects of selected compounds of the general formula (I) on various harmful plants and at an application rate corresponding to 320 g/ha, which were obtained by the experimental procedure mentioned above.

LOLRI [20] = assay: Pre-emergence action at 320 g/ha against LOLRI; assay type: in vivo, Lolium rigidum; conditions: visual scoring after about 3 weeks vs untreated controls
From the text: as §3

MATIN [21] = assay: Pre-emergence action at 320 g/ha against MATIN; assay type: in vivo, Tripleurospermum inodorum (Matricaria inodora); conditions: visual scoring after about 3 weeks vs untreated controls
From the text: as §3

ALOMY [22] = assay: Pre-emergence action at 320 g/ha against ALOMY; assay type: in vivo, Alopecurus myosuroides; conditions: scored visually after about 3 weeks vs untreated controls (100% = plants have died)
From the text: as §3

VERPE [23] = assay: Pre-emergence action at 320 g/ha against VERPE; assay type: in vivo, Veronica persica; conditions: visual scoring after about 3 weeks vs untreated controls
From the text: as §3

POLCO = assay: Pre-emergence action at 320 g/ha against POLCO; assay type: in vivo, Fallopia convolvulus (Polygonum convolvulus); conditions: visual scoring after about 3 weeks vs untreated controls
From the text: as §3

VIOTR = assay: Pre-emergence action at 320 g/ha against VIOTR; assay type: in vivo, Viola tricolor; conditions: dosage 320 g/ha
From the text: as §3

DIGSA [24] = assay: Pre-emergence action at 320 g/ha against DIGSA; assay type: in vivo, Digitaria sanguinalis; conditions: visual scoring after about 3 weeks vs untreated controls
From the text: as §3

ALOMY [25] = assay: Pre-emergence action against ALOMY, 1280 g/ha; assay type: in vivo, Alopecurus myosuroides; conditions: visual scoring after about 3 weeks vs untreated controls, 100% = plants have died, 0% = like control plants
From the text: as §1

## CCOC(=O)COc1nn(-c2cc(F)c(F)cc2F)c(-c2ccc(F)nc2)c1Cl [VII-009]
AMARE [1]
  Pre-emergence action against AMARE: 100%
STEME [2]
  Pre-emergence action against STEME: 100%
LOLRI [3]
  Pre-emergence action against LOLRI: 100%
MATIN [4]
  Pre-emergence action against MATIN: 100%
ABUTH
  Post-emergence action against ABUTH: 90%
AMARE [5]
  Post-emergence action against AMARE: 100%
ECHCG [6]
  Post-emergence action against ECHCG: 100%
ECHCG [7]
  Pre-emergence action against ECHCG: 90%
MATIN [8]
  Post-emergence action against MATIN: 100%
POAAN [9]
  Post-emergence action against POAAN: 100%
STEME [10]
  Post-emergence action against STEME: 100%
VERPE [11]
  Post-emergence action against VERPE: 90%
VERPE [12]
  Pre-emergence action against VERPE: 90%
POAAN [13]
  Pre-emergence action against POAAN: 100%
SETVI [14]
  Pre-emergence action against SETVI: 100%
SETVI [15]
  Post-emergence action against SETVI: 90%

## CCOC(=O)COc1nn(-c2ccc(F)cc2F)c(-c2ccc(F)nc2)c1F [VII-027]
AMARE [1]
  Pre-emergence action against AMARE: 90%
STEME [2]
  Pre-emergence action against STEME: 100%
LOLRI [3]
  Pre-emergence action against LOLRI: 100%
MATIN [4]
  Pre-emergence action against MATIN: 90%
AMARE [5]
  Post-emergence action against AMARE: 90%
ECHCG [7]
  Pre-emergence action against ECHCG: 90%
DIGSA [16]
  Pre-emergence action against DIGSA: 90%
ALOMY [17]
  Post-emergence action against ALOMY: 100%
DIGSA [18]
  Post-emergence action against DIGSA: 100%
VERPE [11]
  Post-emergence action against VERPE: 90%
POAAN [13]
  Pre-emergence action against POAAN: 90%
SETVI [14]
  Pre-emergence action against SETVI: 90%
SETVI [15]
  Post-emergence action against SETVI: 90%

## C[C@@H](Oc1nn(-c2ccccc2)c(-c2cccnc2)c1Cl)C(=O)O [VII-042]
AMARE [19]
  Pre-emergence action against AMARE in %: 100%
LOLRI [20]
  Pre-emergence action against LOLRI in %: 100%
MATIN [21]
  Pre-emergence action against MATIN in %: 90%
ALOMY [22]
  Pre-emergence action at 320 g/ha against ALOMY in %: 90%
VERPE [23]
  Pre-emergence action against VERPE in %: 90%
POLCO
  Pre-emergence action against POLCO in %: 100%
VIOTR
  Pre-emergence action against VIOTR in %: 100%

## CCOC(=O)C(F)Oc1nn(-c2ccccc2F)c(-c2ccc(F)nc2)c1Br (stereo not drawn) [VII-071-a]
AMARE [19]
  Pre-emergence action against AMARE in %: 100%
LOLRI [20]
  Pre-emergence action against LOLRI in %: 100%
MATIN [21]
  Pre-emergence action against MATIN in %: 90%
ALOMY [22]
  Pre-emergence action at 320 g/ha against ALOMY in %: 80%
VERPE [23]
  Pre-emergence action against VERPE in %: 80%
DIGSA [24]
  Pre-emergence action against DIGSA in %: 90%
POLCO
  Pre-emergence action against POLCO in %: 90%
VIOTR
  Pre-emergence action against VIOTR in %: 100%

## CCOC(=O)COc1nn(-c2ccccc2F)c(-c2ccc(F)nc2)c1C(F)F [VII-078]
AMARE [19]
  Pre-emergence action against AMARE in %: 100%
ALOMY [22]
  Pre-emergence action at 320 g/ha against ALOMY in %: 80%
VERPE [23]
  Pre-emergence action against VERPE in %: 80%
VIOTR
  Pre-emergence action against VIOTR in %: 90%

## C#Cc1c(OCC(=O)OCC)nn(-c2ccccc2F)c1-c1ccc(F)nc1 [VII-088]
AMARE [1]
  Pre-emergence action against AMARE: 100%
ALOMY [25]
  Pre-emergence action against ALOMY: 100%
STEME [2]
  Pre-emergence action against STEME: 100%
LOLRI [3]
  Pre-emergence action against LOLRI: 100%
MATIN [4]
  Pre-emergence action against MATIN: 100%
ABUTH
  Post-emergence action against ABUTH: 90%
AMARE [5]
  Post-emergence action against AMARE: 100%
ECHCG [6]
  Post-emergence action against ECHCG: 100%
ECHCG [7]
  Pre-emergence action against ECHCG: 100%
MATIN [8]
  Post-emergence action against MATIN: 100%
POAAN [9]
  Post-emergence action against POAAN: 100%
DIGSA [16]
  Pre-emergence action against DIGSA: 100%
DIGSA [18]
  Post-emergence action against DIGSA: 100%
STEME [10]
  Post-emergence action against STEME: 90%
VERPE [12]
  Pre-emergence action against VERPE: 100%
POAAN [13]
  Pre-emergence action against POAAN: 100%
SETVI [14]
  Pre-emergence action against SETVI: 100%
SETVI [15]
  Post-emergence action against SETVI: 90%
